# Test results reported in patent US20240116877A1, “KIT KINASE INHIBITORS AND METHODS OF USE THEREOF” (Deciphera Pharmaceuticals, LLC, priority 2021, published 2024).
# Where two headings read alike, the source gives them in different places.
# Assays:
# GIST 430 cells = assay: GIST 430 Cell Proliferation Assay (resazurin); assay type: cell-based; conditions: Homo sapiens; GIST430 cell proliferation
# Method: GIST 430 Cell Proliferation Assay
# (§1) A serial dilution of test compound was dispensed into a 96-well black clear bottom plate (Corning, Corning, NY). Five thousand cells were added per well in 200 μL complete growth medium. Plates were incubated for 115 h at 37 degrees Celsius, 5% CO2, 95% humidity. At the end of the incubation period 40 μL of a 440 μM solution of resazurin (Sigma, St. Louis, MO) in PBS was added to each well and incubated for an additional 5 h at 37 degrees Celsius, 5% CO2, 95% humidity. Plates were read on a Synergy2 reader (Biotek, Winooski, VT) using an excitation of 540 nm and an emission of 600 nm. Data was analyzed using Prism software (Graphpad, San Diego, CA) to calculate IC50 values.
# Ba/F3 KIT mutant cells = assay: Ba/F3 mutant KIT Cell Proliferation Assays (resazurin); assay type: cell-based; conditions: Mus musculus, BaF3
# Method: Ba/F3 KIT Mutant Cell Line Transduction and Expansion
# Several different KIT cDNA encoding various primary and secondary mutations were cloned into a pLV(Exp]-CMV>(cDNA):IRES:puro vector. These vectors were constructed and packaged by VectorBuilder.
# Exponentially grown Ba/F3 cells (1×10^6 cells in 1 ml medium) were infected with 60 μl of viral suspension in a 6-well plate in the presence of mIL-3 (10 ng/ml) and polybrene (7.5 μg/ml) (Vector Builder) and incubated for 16 h. After 16 h, the cells were centrifuged, and viral supernatant was discarded. The cells were then re-suspended in fresh medium and allowed to recover for another day. After 72 h post infection, the cells were seeded with complete medium with mIL-3 and with 1 μg/ml puromycin added to medium for selection. After 48 h, cells without viral infection die, whereas successfully transduced cells were collected and changed to fresh medium with 5 ng/ml of IL-3. After a week or two with gradual withdrawal of mIL3 the cells that can continue to proliferate in the absence of mIL3 were exponentially expanded and were frozen down for banking.
# Ba/F3 mutant KIT Cell Proliferation Assays
# as §1, with “a 384-well” for “a 96-well”, “NY). Six hundred and twenty-five” for “NY). Five thousand”, “in 50” for “in 200”, “for 68” for “for 115”, “at 37° C.,” for “at 37 degrees Celsius,”, “period 10” for “period 40”
# c-KIT kinase (uKIT) = c-KIT kinase (uKIT) (Homo sapiens (Human), UniProt P10721); assay: Biochemical Assay for uKIT (coupled pyruvate kinase/lactate dehydrogenase assay); conditions: Inhibition of biochemical activity of uKIT kinase; 1 mM ATP
# Sequence of c-KIT kinase (uKIT) (P10721 other isoform, or with tags, fused parts or gaps): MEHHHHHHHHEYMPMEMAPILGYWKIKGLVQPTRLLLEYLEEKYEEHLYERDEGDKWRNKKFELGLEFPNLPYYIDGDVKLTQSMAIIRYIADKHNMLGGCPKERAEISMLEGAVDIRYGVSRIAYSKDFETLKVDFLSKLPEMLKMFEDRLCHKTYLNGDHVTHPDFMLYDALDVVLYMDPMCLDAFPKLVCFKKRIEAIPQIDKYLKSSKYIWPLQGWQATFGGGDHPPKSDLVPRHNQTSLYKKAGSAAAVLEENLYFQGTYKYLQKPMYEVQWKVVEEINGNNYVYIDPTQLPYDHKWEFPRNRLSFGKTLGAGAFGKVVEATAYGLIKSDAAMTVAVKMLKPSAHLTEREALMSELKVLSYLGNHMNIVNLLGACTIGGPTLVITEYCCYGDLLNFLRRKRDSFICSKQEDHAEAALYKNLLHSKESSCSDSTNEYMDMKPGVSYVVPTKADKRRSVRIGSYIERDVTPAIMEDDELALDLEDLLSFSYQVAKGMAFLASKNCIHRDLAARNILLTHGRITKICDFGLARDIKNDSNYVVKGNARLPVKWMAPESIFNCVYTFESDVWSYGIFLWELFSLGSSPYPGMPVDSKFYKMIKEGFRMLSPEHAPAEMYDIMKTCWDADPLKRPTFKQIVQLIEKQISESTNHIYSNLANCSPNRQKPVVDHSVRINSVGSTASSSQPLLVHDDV
# Method: Biochemical Assay for uKIT
# Activity of c-KIT kinase (SEQ. ID NO. 1 or SEQ. ID NO. 2) was determined spectroscopically using a coupled pyruvate kinase/lactate dehydrogenase assay that continuously monitors the ATP hydrolysis-dependent oxidation of NADH (e.g., Schindler et al. Science (2000) 289: 1938-1942). Assays were conducted in 384-well plates (100 μL final volume) using 16 nM (Decode, SEQ ID No. 1) or 4.36 nM (Signal Chem, SEQ. ID No. 2), 0.7 mg/mL PE4Y substrate, 1.5 units pyruvate kinase, 2.1 units lactate dehydrogenase, 1 mM phosphoenol pyruvate, 0.28 mM NADH and 1 mM ATP in assay buffer (100 mM Tris, pH 7.5, 15 mM MgCl2, 0.5 mM DTT, 0.1% octyl-glucoside, 0.002% (w/v) BSA, and 0.002% Triton X-100). Inhibition of KIT was measured by adding serial diluted test compound (final assay concentration of 1% DMSO). A decrease in absorption at 340 nm was monitored continuously for 6 h at 30° C. on a multi-mode microplate reader (BioTek). The reaction rate was calculated using the 2-3 h time frame. The reaction rate at each concentration of compound was converted to percent inhibition using controls (i.e., reaction with no test compound and reaction with a known inhibitor) and IC50 values were calculated using software routines in Prism (GraphPad software).
# [1] = Ba/F3 KIT AYdup-V654A mutant cell proliferation, read-out: AYdup-V654A IC50
# [2] = Ba/F3 KIT exon11del-V654A mutant cell proliferation, read-out: exon11del-V654A IC50
# [3] = Ba/F3 KIT exon11del-Y823D mutant cell proliferation, read-out: exon11del-Y823D IC50
# [4] = Ba/F3 KIT AYdup mutant cell proliferation, read-out: AYdup IC50
# [5] = Ba/F3 KIT AYdup-D816G mutant cell proliferation, read-out: AYdup-D816G IC50
Structure (SMILES),IC50 (GIST 430 cells) [nM],IC50 (Ba/F3 KIT mutant cells; [1]) [nM],IC50 (Ba/F3 KIT mutant cells; [2]) [nM],IC50 (Ba/F3 KIT mutant cells; [3]) [nM],IC50 (c-KIT kinase (uKIT)) [nM],IC50 (Ba/F3 KIT mutant cells; [4]) [nM],IC50 (Ba/F3 KIT mutant cells; [5]) [nM]
COCCOc1cc(F)c2c(Nc3ccc(NC(=O)COCC4CCOC4)cc3)ncnc2c1 (stereo not shown) [Example 59],10 to 100,100 to 1000,10 to 100,> 1000,10 to 100,–,–
COCCOc1cc(F)c2c(Nc3ccc(NC(=O)NCCOC(C)(C)C)cc3)ncnc2c1 [Example 38],≤ 10,10 to 100,≤ 10,≤ 10,10 to 100,≤ 10,≤ 10
COCCOc1cc(F)c2c(Nc3ccc(NC(=O)CN(C)C(=O)C(C)C)cc3)ncnc2c1 [Example 66],10 to 100,10 to 100,10 to 100,> 1000,10 to 100,–,–
COCCOc1cc(F)c2c(Nc3ccc(NC(=O)COCC4CCCO4)cc3)ncnc2c1 (stereo not shown) [Example 58],10 to 100,100 to 1000,100 to 1000,> 1000,10 to 100,–,–
COCCOc1cc(F)c2c(Nc3ccc(NC(=O)CCN4CCCC4=O)cc3)ncnc2c1 [Example 53],100 to 1000,> 1000,> 1000,–,> 1000,100 to 1000,> 1000
COCCOc1cc(OC)c2c(Nc3ccc(NC(=O)CC(=O)NC(C)(C)C)cc3)ncnc2c1 [Example 177],10 to 100,10 to 100,100 to 1000,100 to 1000,10 to 100,–,–
COCCOc1cc(F)c2c(Nc3ccc(NC(=O)CC(=O)N4CCOCC4)cc3)ncnc2c1 [Example 185],100 to 1000,> 1000,> 1000,> 1000,100 to 1000,–,–
CC(C)(F)CCNC(=O)Nc1ccc(Nc2ncnc3cc(OCCC4COC4)cc(F)c23)cc1 [Example 159],10 to 100,10 to 100,10 to 100,10 to 100,≤ 10,–,–
COC[C@H](C)Oc1cc(F)c2c(Nc3ccc(NC(=O)NCCC(C)(C)F)cc3)ncnc2c1 [Example 157],100 to 1000,100 to 1000,100 to 1000,100 to 1000,10 to 100,–,–
"CO[C@@H](C)COc1cc(F)c2c(Nc3ccc(NC(=O)NCCC(C)(C)F)cc3)ncnc2c1 [Example 7, (S)-1-(3-fluoro-3-methylbutyl)-3-(4-((5-fluoro-7-(2-methoxypropoxy)quinazolin-4-yl)amino)phenyl)urea]",10 to 100,10 to 100,10 to 100,10 to 100,≤ 10,–,–
COCCOc1cc(F)c2c(Nc3ccc(NC(=O)CNC(=O)CC(C)C)cc3)ncnc2c1 [Example 76],≤ 10,10 to 100,≤ 10,100 to 1000,10 to 100,–,–
COCCOc1cc(F)c2c(Nc3ccc(NC(=O)CC(=O)NCC4(C)CCC4)cc3)ncnc2c1 [Example 111],≤ 10,10 to 100,≤ 10,10 to 100,≤ 10,≤ 10,10 to 100
COCCOc1cc(F)c2c(Nc3ccc(NC(=O)CC(=O)NCC4(C)CCCO4)cc3)ncnc2c1 (stereo not shown) [Example 110],10 to 100,100 to 1000,10 to 100,> 1000,10 to 100,–,–
CN(C)CCOc1cc(F)c2c(Nc3ccc(NC(=O)NCCC(C)(C)F)cc3)ncnc2c1 [Example 68],≤ 10,10 to 100,≤ 10,100 to 1000,≤ 10,–,–
COCCOc1cc(F)c2c(Nc3ccc(NC(=O)CC(=O)NC4(C(C)C)CC4)cc3)ncnc2c1 [Example 128],10 to 100,10 to 100,≤ 10,100 to 1000,10 to 100,–,–
"COCCOc1cc(F)c2c(Nc3ccc(NC(=O)CC(=O)NCC(C)(C)C)cc3)ncnc2c1 [Example 4, N1-(4-((5-fluoro-7-(2-methoxyethoxy)quinazolin-4-yl)amino)phenyl)-N3-neopentylmalonamide]",≤ 10,10 to 100,10 to 100,10 to 100,10 to 100,10 to 100,10 to 100
COCCOc1cc(F)c2c(Nc3ccc(NC(=O)CC(=O)NC4CCC4(C)C)cc3)ncnc2c1 (stereo not shown) [Example 168],≤ 10,10 to 100,10 to 100,10 to 100,10 to 100,–,–
COCCOc1cc(F)c2c(Nc3ccc(NC(=O)CC(=O)N4CCCC4C(F)(F)F)cc3)ncnc2c1 (stereo not shown) [Example 169],10 to 100,10 to 100,100 to 1000,100 to 1000,10 to 100,–,–
COCCOc1cc(F)c2c(Nc3ccc(NC(=O)NCCC(C)(C)C#N)c(F)c3)ncnc2c1 [Example 105],≤ 10,10 to 100,≤ 10,100 to 1000,≤ 10,–,–
CCN(C(=O)CC(=O)Nc1ccc(Nc2ncnc3cc(OCCOC)cc(F)c23)cc1)C(C)C [Example 146],100 to 1000,100 to 1000,10 to 100,–,100 to 1000,–,–
COCCOc1cc(F)c2c(Nc3ccc(NC(=O)OCCC(C)(C)F)cc3)ncnc2c1 [Example 52],10 to 100,100 to 1000,10 to 100,100 to 1000,10 to 100,≤ 10,10 to 100
COCCOc1cc(F)c2c(Nc3ccc(NC(=O)NCCC4CC4)cc3)ncnc2c1 [Example 19],10 to 100,≤ 10,10 to 100,100 to 1000,≤ 10,≤ 10,≤ 10
COCCOc1cc(F)c2c(Nc3ccc(NC(=O)NC4CCC(F)(F)CC4)cc3)ncnc2c1 [Example 33],10 to 100,10 to 100,100 to 1000,100 to 1000,10 to 100,–,10 to 100
COCCOc1cc(F)c2c(Nc3ccc(NC(=O)CC(=O)N4CCC4(C)C)cc3)ncnc2c1 [Example 167],10 to 100,10 to 100,100 to 1000,100 to 1000,10 to 100,–,–
COCCOc1cc(F)c2c(Nc3ccc(NC(=O)COCCC(C)C)cc3)ncnc2c1 [Example 47],≤ 10,10 to 100,10 to 100,10 to 100,≤ 10,≤ 10,10 to 100
COCCOc1cc(F)c2c(Nc3ccc(NC(=O)CC(=O)N4CCCCC4)cc3)ncnc2c1 [Example 187],100 to 1000,100 to 1000,> 1000,> 1000,100 to 1000,–,–
COCCOc1cc(F)c2c(Nc3ccc(NC(=O)CC(=O)NCC4(C)CCOCC4)cc3)ncnc2c1 [Example 109],10 to 100,100 to 1000,10 to 100,> 1000,10 to 100,–,–
